# Values quoted from earlier work in patent publication US11826320B2, “Treating COVID 19 by using a mixture of cannabinoids in micellized form to lower levels of pro-inflammatory cytokines and reduce risk of cytokine storm” (WSMEF, LLC, priority 2020, dated 2023).
# What was measured:
# cannabinoid CB2 receptor = cannabinoid CB2 receptor (Homo sapiens, UniProt P34972)
# [1] = target: T1, serotonin 5-HT1A receptor (Homo sapiens, UniProt P08908)
# T1 sequence (P08908 1-422): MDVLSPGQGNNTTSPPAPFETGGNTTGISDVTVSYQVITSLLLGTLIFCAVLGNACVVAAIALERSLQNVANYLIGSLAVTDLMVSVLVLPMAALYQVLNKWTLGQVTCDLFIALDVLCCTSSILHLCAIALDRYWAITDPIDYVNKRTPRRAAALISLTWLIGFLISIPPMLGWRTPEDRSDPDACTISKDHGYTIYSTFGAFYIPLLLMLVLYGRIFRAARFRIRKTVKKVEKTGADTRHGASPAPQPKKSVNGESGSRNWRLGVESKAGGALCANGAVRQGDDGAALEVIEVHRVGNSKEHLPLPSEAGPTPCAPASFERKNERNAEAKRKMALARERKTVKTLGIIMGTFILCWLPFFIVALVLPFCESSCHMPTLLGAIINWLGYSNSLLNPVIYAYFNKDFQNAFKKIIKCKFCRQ
# μ-opioid receptor = μ-opioid receptor (Homo sapiens, UniProt P35372)
# δ-opioid receptor = δ-opioid receptor (Homo sapiens, UniProt P41143)
# SARS-CoV-2 = settings: purified CBD
# cannabinoid CB2 receptor, sequence (P34972 whole entry): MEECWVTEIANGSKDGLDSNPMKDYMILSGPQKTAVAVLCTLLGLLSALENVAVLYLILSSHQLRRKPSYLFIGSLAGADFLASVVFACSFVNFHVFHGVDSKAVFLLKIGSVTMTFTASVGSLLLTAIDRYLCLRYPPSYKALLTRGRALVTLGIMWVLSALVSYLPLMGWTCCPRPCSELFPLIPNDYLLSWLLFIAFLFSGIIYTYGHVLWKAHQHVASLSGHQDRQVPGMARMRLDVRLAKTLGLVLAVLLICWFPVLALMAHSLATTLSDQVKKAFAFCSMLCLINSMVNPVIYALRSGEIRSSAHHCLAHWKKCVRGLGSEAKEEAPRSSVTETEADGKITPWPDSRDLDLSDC
# μ-opioid receptor, sequence (P35372 whole entry): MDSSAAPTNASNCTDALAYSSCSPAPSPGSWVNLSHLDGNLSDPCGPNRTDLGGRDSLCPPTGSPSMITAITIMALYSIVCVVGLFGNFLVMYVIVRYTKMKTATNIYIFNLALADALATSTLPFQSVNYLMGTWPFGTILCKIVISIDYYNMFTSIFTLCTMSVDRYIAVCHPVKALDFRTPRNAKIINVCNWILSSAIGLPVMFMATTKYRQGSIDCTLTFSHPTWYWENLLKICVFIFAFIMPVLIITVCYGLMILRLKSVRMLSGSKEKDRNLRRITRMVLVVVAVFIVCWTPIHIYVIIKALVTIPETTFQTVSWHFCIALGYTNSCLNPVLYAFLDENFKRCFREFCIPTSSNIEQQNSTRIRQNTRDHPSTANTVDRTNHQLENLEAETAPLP
# δ-opioid receptor, sequence (P41143 whole entry): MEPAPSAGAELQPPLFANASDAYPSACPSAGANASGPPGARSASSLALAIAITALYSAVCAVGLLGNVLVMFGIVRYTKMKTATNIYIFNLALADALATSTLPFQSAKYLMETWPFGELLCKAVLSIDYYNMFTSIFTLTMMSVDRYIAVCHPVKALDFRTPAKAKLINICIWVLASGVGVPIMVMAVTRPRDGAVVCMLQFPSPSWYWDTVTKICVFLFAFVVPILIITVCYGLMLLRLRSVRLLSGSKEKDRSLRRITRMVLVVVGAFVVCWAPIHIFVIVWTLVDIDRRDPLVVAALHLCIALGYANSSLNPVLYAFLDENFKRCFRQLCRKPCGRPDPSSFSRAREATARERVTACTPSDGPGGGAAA
structure (smiles),measurement,setting,value
"C=C(C)[C@@H]1CCC(C)=C[C@H]1c1c(O)cc(CCCCC)cc1O [CBD, cannabidiol]",affinity for CB2 receptor,cannabinoid CB2 receptor,low affinity
same,action at 5-HT1A receptor,[1],partial agonist
same,action at μ-opioid receptor,μ-opioid receptor,allosteric modulator
same,action at δ-opioid receptor,δ-opioid receptor,allosteric modulator
same,replication of SARS-CoV-2,SARS-CoV-2,inhibits replication
